“Also recorded” adds a separate entry of the source.
Assays:
Format in all cases: cell-based, human
PD-L1 = PD-L1 expression in PDO tumour cells cocultured with activated PBMC (flow cytometry and multiplex imaging); conditions: resistant PDOs, co-cultured 48 h with activated PBMC
Protocol: A multi-modal assay was developed to test tumour cell response to niraparib and the effects of the treatment on immune cells. The assay is illustrated in FIG. 1. […] After 5 to 7 days (according to the proliferation rate of each PDO), one plate is treated with different doses of niraparib and DMSO for cytotoxicity evaluation. The remaining plates, PDOs are treated with niraparib (1.4 μM), cisplatin (4.7 μM), DMSO or saline solution (control) for 7 days. Following the treatment period, the media from one plate/condition (i.e. one DMSO and one Niraparib-treated plate) is collected for exosomes isolation and analysis of DNA length and the PDOs are processed to extract RNA for RNAseq and qRT-PCR (see the details in the qRT-PCR analysis section). […]
(§1) MACS buffer with mouse anti human CD3, CD8, CD4, CD56, CD226, CD45, TIGIT, PD1, PDL1, EpCAM, PVRIG, TIM3, CD96, CD14 and CD11b antibodies for one hour at 4° C. […] The cell-containing tubes are running on CytoFLEX (Beckman Coulter), and data analyzed with FlowJo software.
Multiplex fluorescence imaging assay is performed on a single 6-micron cryosection of fixed-frozen PDOs. […]

[1] = system: exosomal DNA (exoDNA) from PDOs; test: Length of DNA isolated from exosomes (exoDNA) of treated PDOs; conditions: for exoDNA length, sensitive PDO HNX29: HNX29 (sensitive, representative), exosomes collected after 6 days, compared to control
Protocol: A multi-modal assay was developed to test tumour cell response to niraparib and the effects of the treatment on immune cells. The assay is illustrated in FIG. 1. […] After 5 to 7 days (according to the proliferation rate of each PDO), one plate is treated with different doses of niraparib and DMSO for cytotoxicity evaluation. […] Following the treatment period, the media from one plate/condition (i.e. one DMSO and one Niraparib-treated plate) is collected for exosomes isolation and analysis of DNA length and the PDOs are processed to extract RNA for RNAseq and qRT-PCR (see the details in the qRT-PCR analysis section). For both niraparib and cisplatin treated samples (and the respective controls) PDOs are collected from the remaining plates and, after washing out BME, are plated into low adherence 96 well plates in a 1 to 6 ratio with Peripheral Blood Mononuclear Cells (PBMCs) pre-stimulated for a total of 4 days using anti-CD3 in combination anti-CD28 (as costimulatory signal) antibodies. The PDOs are co-cultured for 48 h after which all the cells are collected, the not infiltrating immune cells are washed off and the rest is either digested to single cells or fixed and embedded as whole tissue. For flow cytometry analysis the single cells are blocked, stained with antibody mix, fixed, and run on a flow cytometer. For imaging, the embedded organoids are labelled with different antibodies, cleared, and imaged.
Exosomes are obtaining by a series of centrifugations and ultra-centrifugations at increasing speeds of the media collected from the PDO cultures. Each sample is split into two tubes for the ultracentrifugation (for subsequent protein and genomic analysis).
DNA is extracted from exosomes via silica-membrane based nucleic acid purification by QIAamp Blood DNA extraction Kit (QIAGEN) and quantified by Qubit dsDNA HS kit. The Genomic DNA ScreenTape assay on the Agilent 4200 Tapestation system is used to assess the length of DNA and the R package bioanalyzeR exploited to obtain the DNA size distribution and number of molecules at different sizes. Part of the exosome DNA is sequenced using Oxford Nanopore Promethion for a drug treatment and a control experiment. For both samples, reads are then aligned to the human genome (hg38) using minimap2, and the following analyses performed. For every gene for which there are any aligned reads, the following is calculated: • Fragments per kilobase million (FPKM) as a normalised metric of representation of gene in the exosome dataset • The maximum fraction of total gene length that is covered by a single nanopore read. • The median fraction of total gene length that is covered by all nanopore reads that aligned to that gene • Coding and non-coding variants (for all bases for which there was a minimum depth of 20 reads) • Hypomethylation of CpG island of coding variants

[2] = system: CD45 positive cells infiltrating PDOs; test: Flow cytometry of CD45 positive immune cells infiltrating PDOs after coculture with activated PBMC; conditions: 48 h coculture
Protocol: (§2) A multi-modal assay was developed to test tumour cell response to niraparib and the effects of the treatment on immune cells. The assay is illustrated in FIG. 1. […] After 5 to 7 days (according to the proliferation rate of each PDO), one plate is treated with different doses of niraparib and DMSO for cytotoxicity evaluation. The remaining plates, PDOs are treated with niraparib (1.4 μM), cisplatin (4.7 μM), DMSO or saline solution (control) for 7 days. Following the treatment period, the media from one plate/condition (i.e. one DMSO and one Niraparib-treated plate) is collected for exosomes isolation and analysis of DNA length and the PDOs are processed to extract RNA for RNAseq and qRT-PCR (see the details in the qRT-PCR analysis section). For both niraparib and cisplatin treated samples (and the respective controls) PDOs are collected from the remaining plates and, after washing out BME, are plated into low adherence 96 well plates in a 1 to 6 ratio with Peripheral Blood Mononuclear Cells (PBMCs) pre-stimulated for a total of 4 days using anti-CD3 in combination anti-CD28 (as costimulatory signal) antibodies. The PDOs are co-cultured for 48 h after which all the cells are collected, the not infiltrating immune cells are washed off and the rest is either digested to single cells or fixed and embedded as whole tissue. For flow cytometry analysis the single cells are blocked, stained with antibody mix, fixed, and run on a flow cytometer. For imaging, the embedded organoids are labelled with different antibodies, cleared, and imaged.
After 48 h of co-culture, PDOs are collected. The non-infiltrating immune cells are separated with a cell strainer while the organoids and infiltrating immune cells reduced to single cell level. Live dead exclusion is performed incubating the cells with Zombie dye for 30 minutes at room temperature. Following a blocking step in MACS buffer and anti-human and mouse IgG, staining is performed in
MACS buffer with mouse anti human CD3, CD8, CD4, CD56, CD226, CD45, TIGIT, PD1, PDL1, EpCAM, PVRIG, TIM3, CD96, CD14 and CD11b antibodies for one hour at 4° C. The cells are then fixed and DNA staining performed. The cell-containing tubes are running on CytoFLEX (Beckman Coulter), and data analyzed with FlowJo software.

[3] = system: EpCAM positive cells of PDOs; test: Tumour cell viability by flow cytometry (live cells within EpCAM positive cells) after coculture with PBMC; conditions: 1.4 μM niraparib or DMSO 7 days, 48 h coculture with PBMC
Protocol: as §2, with “The PDOs are co-cultured for 48 h after which all the cells are collected, the not infiltrating immune cells are washed off and the rest is either digested to single cells or fixed and embedded as whole tissue. For flow cytometry analysis the single cells are blocked, stained with antibody mix, fixed, and run on a flow cytometer. For imaging, the embedded organoids are labelled with different antibodies, cleared, and imaged.” left out
Cell viability is evaluated by flow cytometry analysis performed after 48 h of co-culture subsequent to 7 days of treatment with 1.4 μM Niraparib or DMSO (as control). […]

PD1 = test: Flow cytometry of PD1 expression on CD4 positive cells cocultured with PDOs; conditions: niraparib-treated PDOs, 48 h coculture
Protocol: as §2, with “The PDOs are co-cultured for 48 h after which all the cells are collected, the not infiltrating immune cells are washed off and the rest is either digested to single cells or fixed and embedded as whole tissue. For flow cytometry analysis the single cells are blocked, stained with antibody mix, fixed, and run on a flow cytometer. For imaging, the embedded organoids are labelled with different antibodies, cleared, and imaged.” left out
as §1

[4] = system: Patient-derived organoids (PDOs), HNSCC and NSCLC; test: Cytotoxicity in patient-derived organoids (Cell titre glow dose-response curve); conditions: for PDO response to niraparib compared with cisplatin: resistant and sensitive PDOs, 6 days
Protocol: as §2
PDOs are seeded as single cells at a certain density (according to their growth rate) in 15 μl BME/dome.
1 dome per well in 24-wells plate with 1 ml of complete media/each well. […] 150 μl of the solution is collected from each well and transferred to a 96 well plate for the reading performed with Clariostar Plus (BMG Labtech). […]

Compound	PD-L1 expression in niraparib-treated tumour cells (PD-L1; vs DMSO)	correlation of exoDNA length with niraparib IC50 ([1]; 6 HNSCC and 3 NSCLC PDOs)	exoDNA length, sensitive PDO HNX29 [1]	threshold ratio (niraparib/DMSO) of exosomal DNA length ([1]; ROC curve vs IC50 value, 10 PDOs, sensitivity 100%, specificity 67%)	exoDNA length, niraparib-treated, versus niraparib sensitiveness ([1]; compared to exoDNA from DMSO-treated counterpart)	exoDNA length, niraparib-treated more resistant PDOs ([1]; resistant PDOs, compared to DMSO-treated counterpart)	infiltration of CD45 positive cells, niraparib-treated resistant PDOs ([2]; resistant PDOs (high niraparib IC50), niraparib 1.4 μM 7 days, vs DMSO)	infiltration of CD45 positive cells, niraparib-treated sensitive PDOs ([2]; sensitive PDOs (low niraparib IC50), niraparib 1.4 μM 7 days, vs DMSO)	threshold ratio (niraparib/DMSO) in tumour cell viability between sensitive and resistant cancers [3]	change / ratio (niraparib/DMSO) in tumour cell viability ([3]; sensitive vs resistant PDOs)	PD1 expression in infiltrating CD4 positive cells (PD1; infiltrating CD4 positive (T) cells)	PD1 expression in non-infiltrating CD4 positive cells (PD1; non-infiltrating CD4 positive cells)	IC50 ([4]; Homo sapiens, 168 h, read-out: IC50 threshold (inflection point) above which increased infiltration of CD45 positive cells is observed, PDOs from multiple tumour types, dose-response curve after 7 days of treatment)	PDO response to niraparib compared with cisplatin [4]	PD-L1 expression in cisplatin-treated tumour cells (PD-L1; vs saline)	exoDNA length, cisplatin-treated PDOs more resistant to niraparib ([1]; PDOs more resistant to niraparib, cisplatin-treated)	infiltration of CD45 positive cells, cisplatin-treated resistant PDOs ([2]; PDOs classified as resistant to niraparib, cisplatin 4.7 μM 7 days, vs saline)	infiltration of CD45 positive cells, cisplatin-treated sensitive PDOs ([2]; PDOs classified as sensitive to niraparib, cisplatin 4.7 μM 7 days, vs saline)
NC(=O)c1cccc2cn(-c3ccc([C@@H]4CCCNC4)cc3)nc12 [niraparib]	upregulation of PD-L1 expression; also recorded: PDL1 upregulation; also recorded: high levels of PD-L1, or PD-L1 upregulation	exoDNA length correlates with the niraparib IC50	higher	1.1	increased with the increase of niraparib sensitiveness	shorter	increased in resistant samples; also recorded: increased infiltration of CD45 positive cells; also recorded: increased levels of CD45 positive cell infiltration	reduced in sensitive samples; also recorded: decreased infiltration with CD45 positive cells	0.75	higher ratio (naraparib/DMSO) in tumour cell viability; also recorded: only pronounced in cancers that are sensitive to the PARP inhibitor, niraparib	PD1 expression increases with the increased in IC50 value; also recorded: upregulate PD1 expression; also recorded: high levels of PD1 expression	PD1 expression negatively correlates with niraparib IC50 value	1000 to 1200 nM	similar				
N.N.[Cl][Pt][Cl] [cisplatin]			higher											similar	upregulation of PDL1 expression	shorter	higher infiltration of CD45 pos cells; also recorded: increased infiltration of CD45 positive cells	decreased infiltration with CD45 positive cells

Source: patent US20260308691A1, “NOVEL USE OF AN INHIBITOR OF THE POLY-ADP RIBOSE POLYMERASE (PARP) IN THE TREATMENT OF CANCER” (TESARO, Inc., priority 2023, published 2026)
